According to ChEMBL document CHEMBL1139690, “Comparison between two classes of selective EP(3) antagonists and their biological activities” (Bioorg Med Chem Lett, 2006):

Columns and labels:
[1] = biological target: T1, Prostaglandin E2 receptor EP3 subtype (Homo sapiens, UniProt P43115); test: Binding affinity to EP3 receptor
T1 sequence (P43115 whole entry): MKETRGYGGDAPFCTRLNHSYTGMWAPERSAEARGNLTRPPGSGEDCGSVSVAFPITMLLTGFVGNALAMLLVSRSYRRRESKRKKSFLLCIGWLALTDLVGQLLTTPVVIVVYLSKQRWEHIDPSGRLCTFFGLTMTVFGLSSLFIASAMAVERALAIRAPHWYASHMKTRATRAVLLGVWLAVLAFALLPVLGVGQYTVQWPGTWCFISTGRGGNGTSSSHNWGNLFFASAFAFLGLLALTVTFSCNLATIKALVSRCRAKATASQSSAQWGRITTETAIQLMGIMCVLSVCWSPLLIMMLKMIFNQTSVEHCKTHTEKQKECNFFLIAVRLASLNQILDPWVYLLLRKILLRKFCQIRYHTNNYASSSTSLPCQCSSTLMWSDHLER

[2] = biological target: Prostaglandin E2 receptor EP2 subtype (Homo sapiens, UniProt P43116); test: Binding affinity to EP2 receptor
Chain of Prostaglandin E2 receptor EP2 subtype (P43116 whole entry): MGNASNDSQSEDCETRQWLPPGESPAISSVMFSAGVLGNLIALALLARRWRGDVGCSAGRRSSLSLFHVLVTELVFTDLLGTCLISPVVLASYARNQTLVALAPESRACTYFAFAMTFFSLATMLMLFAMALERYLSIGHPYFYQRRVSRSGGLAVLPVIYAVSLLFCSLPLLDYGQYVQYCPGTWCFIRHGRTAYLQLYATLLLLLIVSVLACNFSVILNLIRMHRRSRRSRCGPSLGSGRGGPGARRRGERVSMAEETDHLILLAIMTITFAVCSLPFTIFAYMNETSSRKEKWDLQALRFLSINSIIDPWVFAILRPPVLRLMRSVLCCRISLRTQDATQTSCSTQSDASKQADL

[3] = biological target: T2, Prostaglandin E2 receptor EP1 subtype (Homo sapiens, UniProt P34995); test: Binding affinity to EP1 receptor
T2 sequence (P34995 whole entry): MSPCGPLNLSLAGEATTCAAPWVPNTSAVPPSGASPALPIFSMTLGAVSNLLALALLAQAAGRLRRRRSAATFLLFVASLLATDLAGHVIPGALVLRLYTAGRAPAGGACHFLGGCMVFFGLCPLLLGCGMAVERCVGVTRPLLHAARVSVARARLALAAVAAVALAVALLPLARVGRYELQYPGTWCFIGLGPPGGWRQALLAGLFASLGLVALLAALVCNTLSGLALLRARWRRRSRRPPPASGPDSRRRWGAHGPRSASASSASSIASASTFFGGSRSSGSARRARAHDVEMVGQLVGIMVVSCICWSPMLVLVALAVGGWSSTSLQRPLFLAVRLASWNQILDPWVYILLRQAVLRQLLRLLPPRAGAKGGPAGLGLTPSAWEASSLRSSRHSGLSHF

[4] = biological target: Prostaglandin E2 receptor EP4 subtype (Homo sapiens, UniProt P35408); test: Binding affinity to EP4 receptor
Chain of Prostaglandin E2 receptor EP4 subtype (P35408 whole entry): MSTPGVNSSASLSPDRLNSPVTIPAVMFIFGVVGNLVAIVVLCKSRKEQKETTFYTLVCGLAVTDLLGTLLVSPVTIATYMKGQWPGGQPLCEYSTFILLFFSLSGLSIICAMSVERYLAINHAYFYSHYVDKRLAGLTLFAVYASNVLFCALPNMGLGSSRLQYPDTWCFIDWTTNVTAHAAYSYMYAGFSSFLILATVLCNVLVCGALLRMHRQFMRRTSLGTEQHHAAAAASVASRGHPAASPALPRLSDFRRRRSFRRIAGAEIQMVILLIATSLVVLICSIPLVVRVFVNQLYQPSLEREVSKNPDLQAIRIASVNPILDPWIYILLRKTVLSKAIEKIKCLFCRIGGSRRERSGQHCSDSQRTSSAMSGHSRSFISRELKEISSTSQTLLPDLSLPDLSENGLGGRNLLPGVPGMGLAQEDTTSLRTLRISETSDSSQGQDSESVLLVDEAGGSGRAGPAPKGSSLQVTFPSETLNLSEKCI

Ki [1] | Ki [2] | Ki [3] | Ki [4] | SMILES
10 nM (antagonist) | 2.1 µM (antagonist) | 2.3 µM (antagonist) | 0.96 µM (antagonist) | Cc1ccc(OCc2ccccc2)c(C/C=C/c2ccccc2/C=C/C(=O)NS(=O)(=O)c2cccs2)c1
5 nM (antagonist) | 8 µM (antagonist) | 8.5 µM (antagonist) | 1.5 µM (antagonist) | O=C(/C=C/c1ccccc1C/C=C/c1ccccc1)NS(=O)(=O)c1cccs1
5 nM (antagonist) | 8 µM (antagonist) | 8.5 µM (antagonist) | 1.5 µM (antagonist) | O=C(/C=C/c1ccccc1/C=C/Cc1ccccc1)NS(=O)(=O)c1cccs1
2.4 nM (antagonist) | 6.5 µM (antagonist) | 2.6 µM (antagonist) | 1 µM (antagonist) | COc1ccc(C/C=C/c2ccccc2/C=C/C(=O)NS(=O)(=O)c2cccs2)cc1
1.6 nM (antagonist) | 8.7 µM (antagonist) | 1.5 µM (antagonist) | 0.84 µM (antagonist) | COc1cc(C/C=C/c2ccccc2/C=C/C(=O)NS(=O)(=O)c2cccs2)ccc1OCc1ccccc1

The remaining lines, values behind:

SMILES | Ki [1] | Ki [2] | Ki [3] | Ki [4]
Cc1ccc(OCc2ccccc2)c(/C=C/Cc2ccccc2/C=C/C(=O)NS(=O)(=O)c2cccs2)c1 | 10 nM (antagonist) | 2.1 µM (antagonist) | 2.3 µM (antagonist) | 0.96 µM (antagonist)
COc1ccc(/C=C/Cc2ccccc2/C=C/C(=O)NS(=O)(=O)c2cccs2)cc1 | 2.4 nM (antagonist) | 6.5 µM (antagonist) | 2.6 µM (antagonist) | 1 µM (antagonist)
Cc1ccc(OCc2ccccc2)c(CCCc2ccccc2CCC(=O)NS(=O)(=O)c2cccs2)c1 | 56 nM (antagonist) | 1.6 µM (antagonist) | 6.7 µM (antagonist) | 1 µM (antagonist)
COc1ccc(/C=C/Cc2ccccc2/C=C/C(=O)O)cc1 | 68 nM (antagonist) | 2.5 µM (antagonist) | > 100 µM | 6.2 µM (antagonist)
COc1cc(/C=C/Cc2ccccc2/C=C/C(=O)NS(=O)(=O)c2cccs2)ccc1OCc1ccccc1 | 1.6 nM (antagonist) | 8.7 µM (antagonist) | 1.5 µM (antagonist) | 0.84 µM (antagonist)
Cc1ccc(OCc2ccccc2)c(CCCc2ccccc2CCC(=O)O)c1 | 65 nM (antagonist) | 0.94 µM (antagonist) | 23 µM | 0.44 µM (antagonist)
COc1cc(/C=C/Cc2ccccc2/C=C/C(=O)O)ccc1OCc1ccccc1 | 8 nM (antagonist) | 0.75 µM (antagonist) | > 20 µM | 0.61 µM (antagonist)
O=C(O)/C=C/c1ccccc1C/C=C/c1ccccc1 | 100 nM (antagonist) | 1.4 µM (antagonist) | > 100 µM | 4.4 µM (antagonist)
